The target of the experiment is T1, histamine 3 receptor (H3R) (Homo sapiens, UniProt Q9Y5N1).
T1 construct: expressed in transfected cells; host or cells: CHO cells
Briefly: Competition binding assay with 3H-(R)α-methylhistamine on membranes of the human HR3-CHO cell line. The note with it: competition with 3H(R)α-Methylhistamine (1 nM), Ki calculated from IC50 by Cheng-Prusoff equation. As for the experimental part: Binding Assay with ^3H-(R)α-methylhistamine Saturation binding experiments were performed using HR3-CHO membranes prepared as described in […]. Pharmacol. Exp. Therapeutics 307, 213-218. An appropriate amount of membrane (60 to 80 μg protein/well) was incubated with increasing concentrations of ^3H(R)α-Methylhistamine di-hydrochloride (0.10 to 10 nM). Non specific binding was determined using a 200 fold excess of cold (R)α-Methylhistamine dihydrobromide (500 nM final concentration). The incubation was carried out at room temperature (in deep-well plates shaking for three hours). The final volume in each well was 250 μl. The incubation was followed by rapid filtration on GF/B filters (pre-soaked with 100 μl of 0.5% PEI in Tris 50 mM shaking at 200 rpm for two hours). The filtration was made using a cell-harvester and the filter plates were then washed five times with ice cold washing buffer containing 0.5 M NaCl. After harvesting, the plates were dried at 55° C. for 60 min, then we added scintillation fluid (Microscint 40, 40 microl in each well) and the amount of radioactivity on the filter was determined in Packard top-counter after shaking the plates for two hours at 200 rpm at room temperature. Binding Buffer: 50 mM Tris-HCl pH 7.4 and 5 mM MgCl2×6H2O pH 7.4. Washing Buffer: 50 mM Tris-HCl pH 7.4 and 5 mM MgCl2×6H2O and 0.5 M NaCl pH 7.4. […] An appropriate amount of protein, e.g. approximately 500 cpm binding of RAMH at Kd, were incubated for 1 hour at room temperature in 250 μl final volume in 96-well plates in presence of ^3H(R)α-Methylhistamine (1 nM final concentration=Kd). Non-specific binding was determined using a 200 fold excess of cold (R)α-Methylhistamine dihydrobromide. All compounds were tested at a single concentration in duplicates. […] Ki's were calculated from IC50 based on Cheng-Prusoff equation (Cheng, Y, Prusoff, W H (1973) Biochem Pharmacol 22, 3099-3108).

Each structure is given as a SMILES string. Where a name gives a salt, the structure may show the parent alone.

T1 sequence (Q9Y5N1 whole entry): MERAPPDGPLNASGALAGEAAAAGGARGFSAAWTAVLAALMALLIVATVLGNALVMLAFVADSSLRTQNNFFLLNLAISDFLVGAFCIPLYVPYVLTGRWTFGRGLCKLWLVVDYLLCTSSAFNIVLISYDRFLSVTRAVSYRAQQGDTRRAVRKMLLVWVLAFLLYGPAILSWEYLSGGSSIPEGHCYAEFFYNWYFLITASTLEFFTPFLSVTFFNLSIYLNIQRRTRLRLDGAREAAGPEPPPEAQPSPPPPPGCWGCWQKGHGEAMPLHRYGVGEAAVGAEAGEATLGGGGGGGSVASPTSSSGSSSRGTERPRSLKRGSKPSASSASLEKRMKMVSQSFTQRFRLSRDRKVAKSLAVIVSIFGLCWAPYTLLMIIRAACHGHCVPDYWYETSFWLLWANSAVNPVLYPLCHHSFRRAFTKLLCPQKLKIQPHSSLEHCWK

By Ki is commonly meant a dissociation constant, usually derived from enzyme kinetics or from competition with a known ligand. Consider `CC(C)N1CCC(Nc2ccc3[nH]c(C(=O)N4CCOCC4)cc3c2)C1` (stereo not drawn) [Example 11, [5-(1-isopropyl-pyrrolidin-3-ylamino)-1H-indol-2-yl]-morpholin-4-yl-methanone bis-hydrochloride], for which the Ki was 256 nM.

Consider `CC(C)N1CCC(Nc2ccc3[nH]c(C(=O)N4CCOCC4)cc3c2)CC1` [Example 3, [5-(1-isopropyl-piperidin-4-ylamino)-1H-indol-2-yl]-morpholin-4-yl-methanone], for which the Ki is 47.5 nM.

For the compound `CC(C)N1CCC(Oc2ccc3[nH]c(C(=O)N(C)C(C)C)cc3c2)CC1` [Example 19, 5-(1-isopropyl-piperidin-4-yloxy)-1H-indole-2-carboxylic acid isopropyl-methyl-amide], the Ki was 66 nM.

Source of the values: patent US7754736B2, “5-aminoindole derivatives as H3 inverse agonists” (Hoffmann-La Roche Inc., priority 2005, dated 2010).
